Test results from BindingDB's records for patent US20250313563 (The Broad Institute, 2025).
Several values for one entry are separate records, joined by “and”; a condition that tells them apart may be missing. Identical values can stand only once.

Legend:
[1] = target: Glycogen synthase kinase-3 alpha (Homo sapiens, UniProt P49840); test: TR-FRET Assay
Outline: (§1)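 Enzyme and test compound were first incubated together for 30 minutes in assay buffer. The kinase reaction followed and was stopped with EDTA. The pSer641 signal was read by time-resolved FRET.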

[2] = target: Glycogen synthase kinase-3 beta (Homo sapiens, UniProt P49841); test: TR-FRET Assay
Sequence of Glycogen synthase kinase-3 beta (P49841 whole entry): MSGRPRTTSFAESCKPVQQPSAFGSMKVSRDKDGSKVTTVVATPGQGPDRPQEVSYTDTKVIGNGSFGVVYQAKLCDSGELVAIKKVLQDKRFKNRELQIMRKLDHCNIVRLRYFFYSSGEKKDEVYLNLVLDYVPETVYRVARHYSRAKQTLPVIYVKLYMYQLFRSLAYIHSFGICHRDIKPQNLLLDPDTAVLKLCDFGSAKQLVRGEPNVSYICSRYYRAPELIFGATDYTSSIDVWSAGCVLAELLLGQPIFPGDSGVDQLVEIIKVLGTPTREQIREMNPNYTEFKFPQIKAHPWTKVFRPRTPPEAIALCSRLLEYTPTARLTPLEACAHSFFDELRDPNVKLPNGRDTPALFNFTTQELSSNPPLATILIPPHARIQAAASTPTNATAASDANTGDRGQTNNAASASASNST
Outline: as §1

Sequence of Glycogen synthase kinase-3 alpha (P49840 whole entry): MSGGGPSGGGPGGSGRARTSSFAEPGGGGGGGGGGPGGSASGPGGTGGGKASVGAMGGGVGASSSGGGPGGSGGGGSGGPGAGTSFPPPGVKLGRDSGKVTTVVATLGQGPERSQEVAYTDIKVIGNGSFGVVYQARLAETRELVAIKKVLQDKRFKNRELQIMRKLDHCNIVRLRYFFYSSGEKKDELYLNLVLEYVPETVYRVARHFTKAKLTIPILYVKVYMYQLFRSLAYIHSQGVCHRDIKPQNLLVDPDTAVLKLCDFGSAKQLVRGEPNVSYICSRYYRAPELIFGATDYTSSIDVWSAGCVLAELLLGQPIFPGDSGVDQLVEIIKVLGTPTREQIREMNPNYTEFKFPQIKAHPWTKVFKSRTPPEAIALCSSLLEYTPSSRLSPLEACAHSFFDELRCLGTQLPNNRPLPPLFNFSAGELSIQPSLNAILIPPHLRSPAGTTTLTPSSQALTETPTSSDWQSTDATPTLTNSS

SMILES | IC50 [1] | IC50 [2]
CC(C)n1ccc(S(=O)(=O)N2CCC3(CC2)C2=C(N=NC2)NC2=C3C(=O)CC(C)(C)C2)n1 [US20250313563, Compound 947258] | < 100 nM | < 100 nM
CC[C@]1(c2cccc(-c3cc(C)ncc3C)c2)C2=C(CC(C)(C)CC2=O)NC2N=NC(C)=C21 (stereo partly specified) [US20250313563, Compound 913050] | < 100 nM | < 100 nM and 100 to 1000 nM
CCC1(c2cccc(-c3cnnc(C)c3)c2)C2=CN=NC2NC2=C1C(=O)CC(C)(C)C2 (stereo unspecified) [US20250313563, Compound 926844] | < 100 nM | 100 to 1000 nM
CC1(C)CC(=O)C2=C(C1)NC1=C(CN=N1)C21CCCC1 [US20250313563, Compound 790666] | < 100 nM | < 100 nM
CC[C@]1(c2cccc(-c3cc(C)ncc3C)c2)C2=CN=NC2NC2=C1C(=O)CC(C)(C)C2 (stereo partly specified) [US20250313563, Compound 943514] | < 100 nM | < 100 nM
CC[C@]1(c2cccc(-c3ccnc(CCO)c3)c2)C2=CN=NC2NC2=C1C(=O)CC(C)(C)C2 (stereo partly specified) [US20250313563, Compound 947816] | 1000 to 5000 nM | > 5000 nM
CC1(C)CC(=O)C2=C(C1)NC1=C(CN=N1)C21CCN(S(=O)(=O)CC2CC2)CC1 [US20250313563, Compound 909207] | < 100 nM | < 100 nM and 100 to 1000 nM
CC[C@]1(c2ccccc2)C2=C(CC(C)(C)CC2=O)NC2N=NC(Br)=C21 (stereo partly specified) [US20250313563, Compound 792341] | 100 to 1000 nM | 100 to 1000 nM
CC1(C)CC(=O)C2=C(C1)NC1=C(CN=N1)[C@@]21CCN(S(C)(=O)=O)C1 [US20250313563, Compound 942462] | < 100 nM | < 100 nM
CCC1(c2cccc(-c3c(C)cncc3C)c2)C2=CN=NC2NC2=C1C(=O)CC(C)(C)C2 (stereo unspecified) [US20250313563, Compound 945703] | < 100 nM | < 100 nM
CC[C@@]1(c2cccc(-c3ccnn3C)c2)C2=CN=NC2NC2=C1C(=O)NC1(CCS(=O)(=O)CC1)C2 (stereo partly specified) [US20250313563, Compound 949394] | < 100 nM | 100 to 1000 nM
CCC1(c2cccc(C(F)(F)F)c2)C2=CN=NC2NC2=C1C(=O)CC1(CCCC1)C2 (stereo unspecified) [US20250313563, Compound 790617] | < 100 nM | < 100 nM
Cn1cc(-c2cccc([C@]3(C)C4=C(CC(C)(C)CC4=O)NC4=C3C(CC(C)(C)C)N=N4)c2)cn1 (stereo partly specified) [US20250313563, Compound 126393] | 1000 to 5000 nM | 100 to 1000 nM
Cc1cccc(S(=O)(=O)N2CCC3(CC2)C2=C(N=NC2)NC2=C3C(=O)CC(C)(C)C2)c1 [US20250313563, Compound 947261] | < 100 nM | < 100 nM
CC[C@]1(c2cccc(Br)c2)C2=CN=NC2NC2=C1C(=O)C[C@H](C)C2 (stereo partly specified) [US20250313563, Compound 810486] | < 100 nM | 100 to 1000 nM
CC1(C)CC(=O)C2=C(C1)NC1=C(CN=N1)C21CN(c2cccnc2)C1 [US20250313563, Compound 947813] | 1000 to 5000 nM | 1000 to 5000 nM
CC[C@]1(c2cccc(Br)c2)C2=CN=NC2NC2=C1C(=O)C[C@H](C(F)(F)F)C2 (stereo partly specified) [US20250313563, Compound 826655] | > 5000 nM | > 5000 nM
CC1(C)CC(=O)C2=C(C1)NC1N=NC=C1C21CCCN(c2ccncc2)CC1 (stereo unspecified) [US20250313563, Compound 932633] | > 5000 nM | > 5000 nM
CC[C@]1(c2cccc(C(F)(F)F)c2)C2=CN=NC2NC2=C1C(=O)NC1(CCC1)C2 (stereo partly specified) [US20250313563, Compound 914308] | < 100 nM and 100 to 1000 nM | < 100 nM and 1000 to 5000 nM
CC(C)(C)CC1=C2C(N=N1)NC1=C(C(=O)CC(C)(C)C1)[C@]21CCc2cc(F)ccc21 (stereo partly specified) [US20250313563, Compound 782424] | 100 to 1000 nM | < 100 nM
CCC1(c2cccc(N3CCc4ccncc4C3)c2)C2=CN=NC2NC2=C1C(=O)CC(C)(C)C2 (stereo unspecified) [US20250313563, Compound 917148] | 1000 to 5000 nM | > 5000 nM
CC[C@@]1(c2cccc(-c3cc(-c4ccccc4)nn3C(C)C)c2)C2=CN=NC2NC2=C1C(=O)NC(C)(C)C2 (stereo partly specified) [US20250313563, Compound 952411] | 1000 to 5000 nM | > 5000 nM
CCC1(c2cccc(CN(C)C(C)=O)c2)C2=CN=NC2NC2=C1C(=O)CC(C)(C)C2 (stereo unspecified) [US20250313563, Compound 865194] | 100 to 1000 nM | 1000 to 5000 nM
CCC1(c2cccc(CN(C)C(=O)C(C)C)c2)C2=CN=NC2NC2=C1C(=O)CC(C)(C)C2 (stereo unspecified) [US20250313563, Compound 865195] | 100 to 1000 nM | > 5000 nM
CC[C@]1(c2cccc(-c3cc(C)ncc3OC)c2)C2=CN=NC2NC2=C1C(=O)NC(C)(C)C2 (stereo partly specified) [US20250313563, Compound 949522] | < 100 nM | 100 to 1000 nM
CCC1(c2cccc(S(C)(=O)=O)c2)C2=C(CC(C)(C)NC2=O)NC2N=NC(C)=C21 (stereo unspecified) [US20250313563, Compound 947395B:] | < 100 nM | < 100 nM
C[C@@H]1C[C@]2(CCN1S(=O)(=O)c1ccn(C)n1)C1=C(N=NC1)NC1=C2C(=O)CC(C)(C)C1 [US20250313563, Compound 917161] | < 100 nM | < 100 nM

SMILES | IC50 [1] | IC50 [2]
C[C@@H]1C[C@]2(CCN1S(C)(=O)=O)C1=CN=NC1NC1=C2C(=O)CC(C)(C)C1 (stereo partly specified) [US20250313563, Compound 918316] | < 100 nM | 100 to 1000 nM
CC[C@@]1(c2cccc(-c3ccncc3C)c2)C2=CN=NC2NC2=C1C(=O)CC(C)(C)C2 (stereo partly specified) [US20250313563, Compound 943991] | 100 to 1000 nM | 1000 to 5000 nM
CCC1(c2cccc(OC)c2)C2=C(CC(C)(C)NC2=O)NC2N=NC(C(F)(F)F)=C21 (stereo unspecified) [US20250313563, Compound 949748] | < 100 nM | 100 to 1000 nM
CCC1(c2cccc(C(F)(F)F)c2)C2=CN=NC2NC2=C1C(=O)N(c1ncn(C)c1C)CC2 (stereo unspecified) [US20250313563, Compound 951598] | 100 to 1000 nM | > 5000 nM
CC1(C)CC(=O)C2=C(C1)NC1=C(CN=N1)C21CCN(S(=O)(=O)c2cccc(C#N)c2)CC1 [US20250313563, Compound 947254] | < 100 nM | < 100 nM and 100 to 1000 nM
Cc1nn(C)c(C)c1S(=O)(=O)N1CCC2(CC1)C1=C(N=NC1)NC1=C2C(=O)CC(C)(C)C1 [US20250313563, Compound 947257] | 100 to 1000 nM | 1000 to 5000 nM
CCC1(c2cccc(C(F)(F)F)c2)C2=C(N=NC2)NC2=C1C(=O)NC2C (stereo unspecified) [US20250313563, Compound 917295] | 100 to 1000 nM | 1000 to 5000 nM
CCC1(c2cccc(-c3cnn(C)c3)c2)C2=C(CC(C)(C)NC2=O)NC2N=NC(Cl)=C21 (stereo unspecified) [US20250313563, Compound 948767] | < 100 nM | < 100 nM
CC1(C)CC(=O)C2=C(C1)NC1=C(CN=N1)C21CCN(S(=O)(=O)c2cccc3ccncc23)CC1 [US20250313563, Compound 947901] | < 100 nM | < 100 nM
CC[C@]1(c2cccc(-c3c(F)cncc3OC)c2)C2=CN=NC2NC2=C1C(=O)CC(C)(C)C2 (stereo partly specified) [US20250313563, Compound 947511] | < 100 nM | < 100 nM
CC[C@]1(c2ccccc2)C2=CN=NC2NC2=C1C(=O)C(O)C(C)(C)C2 (stereo partly specified) [US20250313563, Compound 946056] | 100 to 1000 nM | > 5000 nM
CC[C@@]1(c2cccc(-c3ccnc4c3cnn4C)c2)C2=CN=NC2NC2=C1C(=O)NC(C)(C)C2 (stereo partly specified) [US20250313563, Compound 952913] | < 100 nM | 100 to 1000 nM
CCc1cccc([C@@]2(CC)C3=CN=NC3NC3=C2C(=O)CC(C)(C)C3)c1 (stereo partly specified) [US20250313563, Compound 949401] | < 100 nM and 100 to 1000 nM | < 100 nM and 1000 to 5000 nM
Cc1cccc(C2(C)C3=C(N=NC3)NC3=C2C(=O)CC(C)(C)C3)c1 (stereo unspecified) [US20250313563, Compound 785736] | < 100 nM | 100 to 1000 nM
COCCN1CC2(C1)C1=C(N=NC1)NC1=C2C(=O)CC(C)(C)C1 [US20250313563, Compound 943544] | > 5000 nM | > 5000 nM
Cc1cnccc1[C@H]1CC[C@]2(CC1)C1=C(N=NC1)NC1=C2C(=O)CC(C)(C)C1 [US20250313563, Compound 949318] | 100 to 1000 nM | 100 to 1000 nM
CC[C@@]1(c2cccc(C(F)F)c2)C2=C(CC(C)(C)CC2=O)NC2N=NC(C(F)(F)F)=C21 (stereo partly specified) [US20250313563, Compound 945708] | < 100 nM | 100 to 1000 nM
CC1(C)CC2=C(C(=O)N1)[C@@](C)(c1cccc(S(C)(=O)=O)c1)C1=C(N=NC1C1CC1)N2 (stereo partly specified) [US20250313563, Compound 114679] | < 100 nM | 100 to 1000 nM
CC[C@@]1(c2cccc(N3CCOc4ccccc43)c2)C2=CN=NC2NC2=C1C(=O)CC(C)(C)C2 (stereo partly specified) [US20250313563, Compound 932655] | < 100 nM | < 100 nM
CCC1(c2cccc(OC)c2)C2=C(CC(C)(C)NC2=O)NC2N=NC(C)=C21 (stereo unspecified) [US20250313563, Compound 948763] | < 100 nM | 100 to 1000 nM
CC[C@]1(c2cccc(C(F)(F)F)c2)C2=C(N=NC2)NC2=C1C(=O)C(C)(C)C2 [US20250313563, Compound 950272] | < 100 nM | 100 to 1000 nM
CC[C@@]1(c2cccc(-c3ccnc(C)c3)c2)C2=C(N=NC2)NC2=C1C(=O)[C@H]1CC[C@@H]2C1 [US20250313563, Compound 943916] | < 100 nM | 100 to 1000 nM
CCC1(c2ccccc2)C2=C(N=NC2)NC2=C1C(=O)CC1(CCCC1)C2 (stereo unspecified) [US20250313563, Compound 785737] | < 100 nM | 100 to 1000 nM
CC1(C)CC(=O)C2=C(C1)NC1=C(CN=N1)[C@]21CCCOCC1 [US20250313563, Compound 874535] | < 100 nM | < 100 nM
CC1(C)CC(=O)C2=C(C1)NC1=C(CN=N1)[C@]21C[C@@]2(CCN(CC(F)F)C2)C1 [US20250313563, Compound 913139] | 100 to 1000 nM | 100 to 1000 nM
CC[C@@]1(c2cccc(-c3cnn(C)c3)c2)C2=C(CC(C)(C)NC2=O)NC2N=NC(C)=C21 (stereo partly specified) [US20250313563, Compound 945614] | 100 to 1000 nM | 100 to 1000 nM and 1000 to 5000 nM
